Test results from the NIST ThermoML archive (doi:10.1016/j.jct.2019.06.028).

Assays:
[1] = xn = mol fraction of the nth substance listed; details: 101 kPa, Liquid, Vibrating tube method
[2] = 101 kPa, Liquid, Vibrating tube method

CC(N)=O [ethanamide] + O
mass density [kg/m3], [1]
Details	278.15 K	288.15 K	298.15 K	308.15 K	323.15 K
x1 = 0.0045	1001.13	1000.13	997.95	994.84	988.72
x1 = 0.00696	1001.77	1000.68	998.45	995.28	989.09
x1 = 0.01255	1003.21	1001.93	999.55	996.27	989.94
x1 = 0.0221	1005.68	1004.08	1001.45	997.97	991.4
x1 = 0.03704	1009.47	1007.37	1004.39	1000.6	993.65
x1 = 0.04992	1012.61	1010.12	1006.82	1002.79	995.48
x1 = 0.0607	1015.11	1012.3	1008.75	1004.54	996.95
x1 = 0.07958	1019.24	1015.92	1011.95	1007.37	999.36
x1 = 0.09463	1022.32	1018.65	1014.35	1009.49	1001.16
x1 = 0.1128	1025.82	1021.71	1017.06	1011.89	1003.22
x1 = 0.1325	1029.34	1024.81	1019.79	1014.32	1005.31
x1 = 0.159	1033.54	1028.5	1023.07	1017.25	1007.78
x1 = 0.1991	1038.57	1032.99	1027.09	1020.83	1010.87
x1 = 0.2503	1043.75	1037.61	1031.18	1024.52	1013.96
x1 = 0.3039	–	1041.06	1034.29	1027.28	1016.34
x1 = 0.3456	–	1043.19	1036.18	1028.97	1017.76
x1 = 0.3875	–	–	1037.52	1030.2	1018.81

O [water]
[2]
Details	mass density [kg/m3]
278.15 K	999.96
323.15 K	988.03

O [water] + CC(N)=O
[1], x2 = 0
Details	mass density [kg/m3]
278.15 K	999.96
323.15 K	988.03
